Measured values: ChEMBL document CHEMBL4477231, “Design, synthesis and antiproliferative activity studies of novel dithiocarbamate-chalcone derivates” (Bioorg Med Chem Lett, 2016)
The source made the active and inactive calls. No cut-off for these calls is given here.

Legend:
[1] = system: SK-N-SH; assay: Cytotoxicity against human SK-N-SH cells assessed as cell growth inhibition after 72 hrs by MTT assay; assay type: functional, cell-based
[2] = system: MGC-803; assay: Cytotoxicity against human MGC803 cells assessed as cell growth inhibition after 72 hrs by MTT assay; assay type: functional, cell-based; settings: MGC-803, 72 h
[3] = system: ECa-109 cell line; assay: Cytotoxicity against human EC109 cells assessed as cell growth inhibition after 72 hrs by MTT assay; assay type: functional, cell-based; settings: ECa-109, 72 h
[4] = system: GES1; assay: Cytotoxicity against human GES-1 cells assessed as reduction in cell viability after 72 hrs by MTT assay; assay type: cell-based; settings: GES1, 72 h
[5] = system: SK-N-SH; assay: Cell cycle arrest in human SK-N-SH cells assessed as accumulation at S phase at 5 uM after 24 hrs by propidium iodide staining based flow cytometry (reference value: 30.91 %); assay type: functional
[6] = system: SK-N-SH; assay: Cell cycle arrest in human SK-N-SH cells assessed as accumulation at G2/M phase at 2.5 uM after 48 hrs by propidium iodide staining based flow cytometry (reference value: 18.35 %); assay type: functional
[7] = system: SK-N-SH; assay: Induction of apoptosis in human SK-N-SH cells assessed as increase in p53 expression at 2.5 to 5 uM after 48 hrs; assay type: functional, cell-based
[8] = system: SK-N-SH; assay: Induction of apoptosis in human SK-N-SH cells assessed as formation of apoptotic bodies at 5 uM after 24 to 48 hrs by Hoechst 33258 staining based fluorescence microscopy; assay type: functional, cell-based
[9] = system: SK-N-SH; assay: Cell cycle arrest in human SK-N-SH cells assessed as accumulation at G2/M phase at 5 uM after 24 hrs by propidium iodide staining based flow cytometry (reference value: 17 %); assay type: functional
[10] = system: SK-N-SH; assay: Induction of apoptosis in human SK-N-SH cells assessed as chromatin shrinkage at 5 uM after 24 to 48 hrs by Hoechst 33258 staining based fluorescence microscopy; assay type: functional, cell-based
[11] = system: SK-N-SH; assay: Cell cycle arrest in human SK-N-SH cells assessed as accumulation at G2/M phase at 5 uM after 48 hrs by propidium iodide staining based flow cytometry (reference value: 18.35 %); assay type: functional
[12] = system: SK-N-SH; assay: Cell cycle arrest in human SK-N-SH cells assessed as accumulation at G0/G1 phase at 5 uM after 24 hrs by propidium iodide staining based flow cytometry (reference value: 50.26 %); assay type: functional
[13] = system: SK-N-SH; assay: Cell cycle arrest in human SK-N-SH cells assessed as accumulation at S phase at 2.5 uM after 24 hrs by propidium iodide staining based flow cytometry (reference value: 30.91 %); assay type: functional
[14] = system: SK-N-SH; assay: Induction of apoptosis in human SK-N-SH cells at 5 uM by Annexin V-FITC/propidium iodide staining based flow cytometry; assay type: functional, cell-based; settings: TDE = time-dependent effect
[15] = system: SK-N-SH; assay: Cell cycle arrest in human SK-N-SH cells assessed as accumulation at G0/G1 phase at 2.5 uM after 24 hrs by propidium iodide staining based flow cytometry (reference value: 50.26 %); assay type: functional
[16] = system: SK-N-SH; assay: Induction of apoptosis in human SK-N-SH cells assessed as round cells at 5 uM after 24 to 48 hrs by Hoechst 33258 staining based fluorescence microscopy; assay type: functional, cell-based
[17] = system: SK-N-SH; assay: Cell cycle arrest in human SK-N-SH cells assessed as accumulation at G0/G1 phase at 2.5 uM after 48 hrs by propidium iodide staining based flow cytometry (reference value: 54.35 %); assay type: functional
[18] = system: SK-N-SH; assay: Induction of apoptosis in human SK-N-SH cells at 5 uM after 24 hrs by Annexin V-FITC/propidium iodide staining based flow cytometry relative to control; assay type: functional
[19] = system: SK-N-SH; assay: Cell cycle arrest in human SK-N-SH cells assessed as accumulation at S phase at 5 uM after 48 hrs by propidium iodide staining based flow cytometry (reference value: 27.41 %); assay type: functional
[20] = system: SK-N-SH; assay: Cell cycle arrest in human SK-N-SH cells assessed as accumulation at S phase at 2.5 uM after 48 hrs by propidium iodide staining based flow cytometry (reference value: 27.41 %); assay type: functional
[21] = system: SK-N-SH; assay: Cell cycle arrest in human SK-N-SH cells assessed as accumulation at G0/G1 phase at 5 uM after 48 hrs by propidium iodide staining based flow cytometry (reference value: 54.35 %); assay type: functional
[22] = system: SK-N-SH; assay: Induction of apoptosis in human SK-N-SH cells assessed as reduction in procaspase-3 level at 2.5 to 5 uM after 48 hrs; assay type: functional, cell-based
[23] = system: SK-N-SH; assay: Cell cycle arrest in human SK-N-SH cells assessed as accumulation at G2/M phase at 2.5 uM after 24 hrs by propidium iodide staining based flow cytometry (reference value: 17 %); assay type: functional
[24] = system: SK-N-SH; assay: Induction of apoptosis in human SK-N-SH cells at 5 uM after 48 hrs by Annexin V-FITC/propidium iodide staining based flow cytometry relative to control; assay type: functional

## CN1CCN(C(=S)SCCCOc2ccc(C(=O)/C=C/c3cc(F)cc(F)c3)cc2)CC1
[1]
  IC50: 13.2 µM
[2]
  IC50: 16.3 µM
[3]
  IC50: 14.5 µM

## O=c1[nH]cc(F)c(=O)[nH]1 [FLUOROURACIL]
[1]
  IC50: 9.84 µM
[2]
  IC50: 7.21 µM

## O=C(/C=C/c1ccc(Cl)cc1)c1ccc(OCCCSC(=S)N2CCCCC2)cc1
[1]
  IC50: 32.2 µM
[2]
  IC50: 56.8 µM
[3]
  IC50: 42.6 µM

## COc1cc(/C=C/C(=O)c2ccc(OCCSC(=S)N3CCCC3)cc2)cc(OC)c1OC
[1]
  IC50: 12.1 µM
[2]
  IC50: 31.7 µM
[3]
  IC50: 10.7 µM

## O=C(/C=C/c1ccc(Cl)cc1)c1ccc(OCCSC(=S)N2CCCCC2)cc1
[1]
  IC50: 27.4 µM
[2]
  IC50: 12.8 µM
[3]
  IC50: 26.1 µM

## O=C(/C=C/c1cc(F)cc(F)c1)c1ccc(OCCCSC(=S)N2CCCC2)cc1
[1]
  IC50: 36.1 µM
[2]
  IC50: 28.4 µM
[3]
  IC50: 28.8 µM

## COc1cc(/C=C/C(=O)c2ccc(OCCSC(=S)N3CCCCC3)cc2)cc(OC)c1OC
[1]
  IC50: 48.4 µM
[2]
  IC50: 41.3 µM
[3]
  IC50: 38.9 µM

## COc1ccc(/C=C/C(=O)c2ccc(OCCCSC(=S)N3CCN(C)CC3)cc2)cc1
[1]
  IC50: 29.5 µM
[2]
  IC50: 19.4 µM
[3]
  IC50: > 100 µM

## O=C(/C=C/c1ccc(Cl)cc1)c1ccc(OCCCSC(=S)N2CCCC2)cc1
[1]
  IC50: 19.1 µM
[2]
  IC50: 34.5 µM
[3]
  IC50: 18.6 µM

## COc1cc(/C=C/C(=O)c2ccc(OCCCSC(=S)N3CCCC3)cc2)cc(OC)c1OC
[1]
  IC50: 12.8 µM
[2]
  IC50: 14.5 µM
[3]
  IC50: 11.1 µM

## CN1CCN(C(=S)SCCCOc2ccc(C(=O)/C=C/c3cc(Cl)cc(Cl)c3)cc2)CC1
[1]
  IC50: 24.6 µM
[2]
  IC50: 19.4 µM
[3]
  IC50: 12.4 µM

## O=C(/C=C/c1cccs1)c1ccc(OCCSC(=S)N2CCCC2)cc1
[1]
  IC50: 19.1 µM
[2]
  IC50: 32.4 µM
[3]
  IC50: 18.2 µM

## CN1CCN(C(=S)SCCCOc2ccc(C(=O)/C=C/c3ccc(Cl)cc3)cc2)CC1
[1]
  IC50: 31.9 µM
[2]
  IC50: 29.4 µM
[3]
  IC50: 34.2 µM

## O=C(/C=C/c1ccc(Cl)cc1)c1ccc(OCCSC(=S)N2CCOCC2)cc1
[1]
  IC50: 11.7 µM
[2]
  IC50: 11.5 µM
[3]
  IC50: 15.4 µM

## O=C(/C=C/c1cccs1)c1ccc(OCCCSC(=S)N2CCCCC2)cc1
[1]
  IC50: 38.2 µM
[2]
  IC50: 41.3 µM
[3]
  IC50: 36.4 µM

## O=C(/C=C/c1cccnc1)c1ccc(OCCCSC(=S)N2CCCC2)cc1
[1]
  IC50: 24.5 µM
[2]
  IC50: 19.5 µM
[3]
  IC50: 29.8 µM

## O=C(/C=C/c1ccc(Cl)cc1)c1ccc(OCCSC(=S)N2CCCC2)cc1
[1]
  IC50: 18.3 µM
[2]
  IC50: 47.9 µM
[3]
  IC50: 27.8 µM

## COc1cc(/C=C/C(=O)c2ccc(OCCSC(=S)N3CCN(C)CC3)cc2)cc(OC)c1OC
[4]
  IC50: > 64 µM
[1]
  IC50: 2.46 µM
[2]
  IC50: 8.28 µM
[3]
  IC50: 10 µM

## COc1cc(/C=C/C(=O)c2ccc(OCCCSC(=S)N3CCN(C)CC3)cc2)cc(OC)c1OC
[4]
  IC50: > 64 µM
[5]
  Activity: 25.26%
[6]
  Activity: 13.81%
[7]
  Activity: Active
[8]
  Activity: Active
[9]
  Activity: 6.11%
[1]
  IC50: 2.03 µM
[2]
  IC50: 7.37 µM
[10]
  Activity: Active
[11]
  Activity: 10.54%
[12]
  Activity: 68.19%
[3]
  IC50: 7.43 µM
[13]
  Activity: 31.19%
[14]
  Activity: Tde
[15]
  Activity: 50.03%
[16]
  Activity: Active
[17]
  Activity: 59.64%
[18]
  Activity: 20.6%
[19]
  Activity: 14.22%
[20]
  Activity: 26.02%
[21]
  Activity: 74.85%
[22]
  Activity: Active
[23]
  Activity: 18.55%
[24]
  Activity: 36.8%
